pIC50: −log10 of the molar value.
System: 519858-162-T-J1-PDC complex spheroid viability
Assay: Anticancer human tumor 519858-162-T-J1-PDC patient-derived colon adenocarcinoma cell line growth inhibition [GQUAD]
Settings: for pIC50: curve of first compound; for viability, T/C: stronger effect = lower value
Procedure, shortened: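 Tumor cells were grown as complex spheroids with HUVEC endothelial cells and mesenchymal stem cells as stroma. G-quadruplex stabilizers were combined with targeted agents over half-log dilutions from near the clinical Cmax, or from 10 microM.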

[1] = second compound 0.0316 µM, first compound 0.0316 µM
[2] = second compound 0.0316 µM, first compound 0.1 µM
[3] = second compound 0.0316 µM, first compound 0.316 µM
[4] = second compound 0.0316 µM, first compound 1 µM
[5] = second compound 0.0316 µM, first compound 3.16 µM
[6] = second compound 0.0316 µM, first compound 10 µM
[7] = second compound 0.1 µM, first compound 0.0316 µM
[8] = second compound 0.1 µM, first compound 0.1 µM
[9] = second compound 0.1 µM, first compound 0.316 µM
[10] = second compound 0.1 µM, first compound 1 µM
[11] = second compound 0.1 µM, first compound 3.16 µM
[12] = second compound 0.1 µM, first compound 10 µM
[13] = second compound 0.316 µM, first compound 0.0316 µM
[14] = second compound 0.316 µM, first compound 0.1 µM
[15] = second compound 0.316 µM, first compound 0.316 µM
[16] = second compound 0.316 µM, first compound 1 µM
[17] = second compound 0.316 µM, first compound 3.16 µM
[18] = second compound 0.316 µM, first compound 10 µM
[19] = second compound 1 µM, first compound 0.0316 µM
[20] = second compound 1 µM, first compound 0.1 µM
[21] = second compound 1 µM, first compound 0.316 µM
[22] = second compound 1 µM, first compound 1 µM
[23] = second compound 1 µM, first compound 3.16 µM
[24] = second compound 1 µM, first compound 10 µM
[25] = second compound 3.16 µM, first compound 0.0316 µM
[26] = second compound 3.16 µM, first compound 0.1 µM
[27] = second compound 3.16 µM, first compound 0.316 µM
[28] = second compound 3.16 µM, first compound 1 µM
[29] = second compound 3.16 µM, first compound 3.16 µM
[30] = second compound 3.16 µM, first compound 10 µM
[31] = second compound 10 µM, first compound 0.0316 µM
[32] = second compound 10 µM, first compound 0.1 µM
[33] = second compound 10 µM, first compound 0.316 µM
[34] = second compound 10 µM, first compound 1 µM
[35] = second compound 10 µM, first compound 3.16 µM
[36] = second compound 10 µM, first compound 10 µM
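Further: spheroids exposed to compounds for 7 days.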
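Wherever viability, T/C is given: 100% = DMSO vehicle control viability.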

`O=C(c1cc(Cc2n[nH]c(=O)c3ccccc23)ccc1F)N1CCN(C(=O)C2CC2)CC1` + Cc1[nH]c2ccc(F)cc2c1-c1nc2c3cccnc3c3ncccc3c2[nH]1 was tested, and the pIC50 (second compound 0.0316 µM) was less than 5.00, the pIC50 (second compound 0.1 µM) was less than 5.00 and the pIC50 (second compound 0.316 µM) was less than 5.00. The pIC50 (second compound 1 µM) was less than 5.00, the pIC50 (second compound 3.16 µM) was greater than 7.50 and the pIC50 (second compound 10 µM) was less than 5.00. The viability, T/C [1] was 122%, the viability, T/C [2] was 85.5% and the viability, T/C [3] was 82.7%. For the same molecule, the viability, T/C [4] was 66.6%, the viability, T/C [5] was 68% and the viability, T/C [6] was 111%. It also gave a viability, T/C [7] of 110%, a viability, T/C [8] of 85.3% and a viability, T/C [9] of 87.7%. The viability, T/C [10] was 102%, the viability, T/C [11] was 103% and the viability, T/C [12] was 63.6%. For the same molecule, the viability, T/C [13] was 105%, the viability, T/C [14] was 97.9% and the viability, T/C [15] was 81.9%. For the same molecule, the viability, T/C [16] was 100%, the viability, T/C [17] was 75.6% and the viability, T/C [18] was 97.1%. It also gave a viability, T/C [19] of 82.7%, a viability, T/C [20] of 100% and a viability, T/C [21] of 102%. It also gave a viability, T/C [22] of 81.2%, a viability, T/C [23] of 69.9% and a viability, T/C [24] of 95.3%. The viability, T/C [25] was 49.2%, the viability, T/C [26] was 63% and the viability, T/C [27] was 92%. The viability, T/C [28] was 59.2%, the viability, T/C [29] was 79.8% and the viability, T/C [30] was 71.1%. It also gave a viability, T/C [31] of 86.1%, a viability, T/C [32] of 69.9% and a viability, T/C [33] of 52.6%. It also gave a viability, T/C [34] of 81.6%, a viability, T/C [35] of 51.8% and a viability, T/C [36] of 53.7%.
With `COc1cc(C2c3cc4c(cc3C(OC3OC5COC(C)OC5C(O)C3O)C3COC(=O)C23)OCO4)cc(OC)c1O` (stereo not drawn) + CN(C)c1ccc(Nc2c3ccc(NC(=O)CCN4CCCC4)cc3nc3cc(NC(=O)CCN4CCCC4)ccc23)cc1 the pIC50 (second compound 0.0316 µM) was less than 5.00, the pIC50 (second compound 0.1 µM) was less than 5.00 and the pIC50 (second compound 0.316 µM) was less than 5.00. For the same molecule, the pIC50 (second compound 1 µM) was less than 5.00, the pIC50 (second compound 3.16 µM) was less than 5.00 and the pIC50 (second compound 10 µM) was less than 5.00. For the same molecule, the viability, T/C [1] was 87.2%, the viability, T/C [2] was 80.1% and the viability, T/C [3] was 83.5%. For the same molecule, the viability, T/C [4] was 69.2%, the viability, T/C [5] was 80.7% and the viability, T/C [6] was 103%. It also gave a viability, T/C [7] of 68.6%, a viability, T/C [8] of 81.8% and a viability, T/C [9] of 79.6%. It also gave a viability, T/C [10] of 94.3%, a viability, T/C [11] of 60.8% and a viability, T/C [12] of 84%. For the same molecule, the viability, T/C [13] was 93.5%, the viability, T/C [14] was 95.8% and the viability, T/C [15] was 80.5%. It also gave a viability, T/C [16] of 61.8%, a viability, T/C [17] of 77% and a viability, T/C [18] of 62.7%. For the same molecule, the viability, T/C [19] was 85.4%, the viability, T/C [20] was 65.2% and the viability, T/C [21] was 64.9%. For the same molecule, the viability, T/C [22] was 65.9%, the viability, T/C [23] was 77% and the viability, T/C [24] was 80.3%. It also gave a viability, T/C [25] of 59.8%, a viability, T/C [26] of 76.2% and a viability, T/C [27] of 65.3%. It also gave a viability, T/C [28] of 74.1%, a viability, T/C [29] of 101% and a viability, T/C [30] of 67.6%. It also gave a viability, T/C [31] of 55.6%, a viability, T/C [32] of 69.2% and a viability, T/C [33] of 73.6%. It also gave a viability, T/C [34] of 64.3%, a viability, T/C [35] of 74.8% and a viability, T/C [36] of 83.8%.
`O=c1[nH]cc(F)c(=O)[nH]1` + Cc1[nH]c2ccc(F)cc2c1-c1nc2c3cccnc3c3ncccc3c2[nH]1 was tested, and the pIC50 (second compound 0.0316 µM) was less than 5.00, the pIC50 (second compound 0.1 µM) was less than 5.00 and the pIC50 (second compound 0.316 µM) was less than 5.00. The pIC50 (second compound 1 µM) was less than 5.00, the pIC50 (second compound 3.16 µM) was less than 5.00 and the pIC50 (second compound 10 µM) was less than 5.00. It also gave a viability, T/C [1] of 138%, a viability, T/C [2] of 85.8% and a viability, T/C [3] of 80.8%. For the same molecule, the viability, T/C [4] was 98.3%, the viability, T/C [5] was 81.7% and the viability, T/C [6] was 87.3%. It also gave a viability, T/C [7] of 116%, a viability, T/C [8] of 103% and a viability, T/C [9] of 94%. For the same molecule, the viability, T/C [10] was 98.6%, the viability, T/C [11] was 70.6% and the viability, T/C [12] was 84.9%. The viability, T/C [13] was 86%, the viability, T/C [14] was 103% and the viability, T/C [15] was 87.4%. The viability, T/C [16] was 83.7%, the viability, T/C [17] was 86.5% and the viability, T/C [18] was 74.9%. It also gave a viability, T/C [19] of 101%, a viability, T/C [20] of 83.2% and a viability, T/C [21] of 75.8%. It also gave a viability, T/C [22] of 65.7%, a viability, T/C [23] of 60.6% and a viability, T/C [24] of 89.5%. It also gave a viability, T/C [25] of 57%, a viability, T/C [26] of 69% and a viability, T/C [27] of 65.7%. For the same molecule, the viability, T/C [28] was 75.5%, the viability, T/C [29] was 71.3% and the viability, T/C [30] was 63%. It also gave a viability, T/C [31] of 81%, a viability, T/C [32] of 78.1% and a viability, T/C [33] of 59.6%. It also gave a viability, T/C [34] of 71.9%, a viability, T/C [35] of 83.1% and a viability, T/C [36] of 55.6%.
In the case of `CC1COCCN1c1cc(C2(O)CC3CCC(C2)O3)c2cnn(-c3ccn[nH]3)c2n1` (stereo not drawn) + CN(C)c1ccc(Nc2c3ccc(NC(=O)CCN4CCCC4)cc3nc3cc(NC(=O)CCN4CCCC4)ccc23)cc1, the pIC50 (second compound 0.0316 µM) was 5.08, the pIC50 (second compound 0.1 µM) was less than 5.00 and the pIC50 (second compound 0.316 µM) was less than 5.00. The pIC50 (second compound 1 µM) was 5.03, the pIC50 (second compound 3.16 µM) was less than 5.00 and the pIC50 (second compound 10 µM) was less than 5.00. For the same molecule, the viability, T/C [1] was 84.3%, the viability, T/C [2] was 89% and the viability, T/C [3] was 87.3%. It also gave a viability, T/C [4] of 90.2%, a viability, T/C [5] of 114% and a viability, T/C [6] of 42%. For the same molecule, the viability, T/C [7] was 77.5%, the viability, T/C [8] was 76.9% and the viability, T/C [9] was 76.5%. The viability, T/C [10] was 73.5%, the viability, T/C [11] was 75.2% and the viability, T/C [12] was 71.6%. It also gave a viability, T/C [13] of 106%, a viability, T/C [14] of 65.5% and a viability, T/C [15] of 98.2%. For the same molecule, the viability, T/C [16] was 105%, the viability, T/C [17] was 113% and the viability, T/C [18] was 57%. It also gave a viability, T/C [19] of 104%, a viability, T/C [20] of 75.6% and a viability, T/C [21] of 99.8%. It also gave a viability, T/C [22] of 79.2%, a viability, T/C [23] of 88.4% and a viability, T/C [24] of 47.8%. It also gave a viability, T/C [25] of 71.1%, a viability, T/C [26] of 66.8% and a viability, T/C [27] of 98.3%. The viability, T/C [28] was 73.2%, the viability, T/C [29] was 74.3% and the viability, T/C [30] was 65.3%. It also gave a viability, T/C [31] of 85%, a viability, T/C [32] of 81% and a viability, T/C [33] of 59.9%. For the same molecule, the viability, T/C [34] was 60.7%, the viability, T/C [35] was 76.5% and the viability, T/C [36] was 43.1%.

Source: PubChem BioAssay AID2060507 (Molecular Pharmacology Branch, DTP, NCI, 2025)
